Details: for mass density: Vibrating tube method; for vapor or sublimation pressure: Closed cell (Static) method

CCC [propane]
Fluid (supercritical or subcritical phases)
Details | mass density [kg/m3]
240 K, 527.3 kPa | 570.78
240 K, 1044.8 kPa | 571.46
240 K, 1522.4 kPa | 572.08
240 K, 1978.3 kPa | 572.68
240 K, 2477.9 kPa | 573.32
240 K, 2999.9 kPa | 573.98
240 K, 3513 kPa | 574.62
240 K, 4045.7 kPa | 575.29
240 K, 4504.5 kPa | 575.85
240 K, 4957.8 kPa | 576.41
240 K, 5475.7 kPa | 577.04
240 K, 6018.3 kPa | 577.69
240 K, 6523.2 kPa | 578.3
240 K, 7043.3 kPa | 578.91
250 K, 513.8 kPa | 558.73
250 K, 1008.1 kPa | 559.47
250 K, 1508.3 kPa | 560.2
250 K, 2008.3 kPa | 560.93
250 K, 2524.1 kPa | 561.67
250 K, 3016.9 kPa | 562.38
250 K, 3503.7 kPa | 563.05
250 K, 3993.1 kPa | 563.74
250 K, 4478.5 kPa | 564.4
250 K, 5045.1 kPa | 565.17
250 K, 5495.4 kPa | 565.78
250 K, 5999.9 kPa | 566.46
250 K, 6543.5 kPa | 567.17
250 K, 7010.3 kPa | 567.78
260 K, 506.6 kPa | 546.1
260 K, 1013.8 kPa | 546.96
260 K, 1503.5 kPa | 547.77
260 K, 1999.7 kPa | 548.6
260 K, 2504.5 kPa | 549.42
260 K, 3012.1 kPa | 550.24
260 K, 3513.3 kPa | 551.04
260 K, 4020 kPa | 551.84
260 K, 4498.9 kPa | 552.58
260 K, 5014.5 kPa | 553.38
260 K, 5513.9 kPa | 554.12
260 K, 6028.2 kPa | 554.89
260 K, 6522.8 kPa | 555.62
260 K, 7048.9 kPa | 556.4
270 K, 504.7 kPa | 532.93
270 K, 1012.9 kPa | 533.91
270 K, 1510.4 kPa | 534.87
270 K, 2005.4 kPa | 535.83
270 K, 2499.6 kPa | 536.75
270 K, 3017.5 kPa | 537.7
270 K, 3497.1 kPa | 538.57
270 K, 4018.8 kPa | 539.5
270 K, 4488.2 kPa | 540.32
270 K, 5023.8 kPa | 541.26
270 K, 5504.7 kPa | 542.05
270 K, 6021.1 kPa | 542.91
270 K, 6525.8 kPa | 543.74
270 K, 7024.1 kPa | 544.55
280 K, 1000 kPa | 520.1
280 K, 1466.1 kPa | 521.15
280 K, 1964.2 kPa | 522.28
280 K, 2513 kPa | 523.49
280 K, 3032.9 kPa | 524.61
280 K, 3519.3 kPa | 525.6
280 K, 4049.7 kPa | 526.68
280 K, 4527.5 kPa | 527.65
280 K, 4963.1 kPa | 528.5
280 K, 5443.4 kPa | 529.45
280 K, 5982.8 kPa | 530.51
280 K, 6522.6 kPa | 531.56
280 K, 7034.7 kPa | 532.51
290 K, 1499.4 kPa | 506.71
290 K, 2004.4 kPa | 508.04
290 K, 2510 kPa | 509.33
290 K, 2998.9 kPa | 510.56
290 K, 3484 kPa | 511.74
290 K, 4018.1 kPa | 513.03
290 K, 4476.9 kPa | 514.12
290 K, 5036.3 kPa | 515.41
290 K, 5531.4 kPa | 516.52
290 K, 5957.4 kPa | 517.46
290 K, 6525.4 kPa | 518.7
290 K, 7049.2 kPa | 519.81
300 K, 1517.7 kPa | 491.19
300 K, 2015.2 kPa | 492.77
300 K, 2519.2 kPa | 494.32
300 K, 3032.3 kPa | 495.86
300 K, 3486.3 kPa | 497.18
300 K, 4036.8 kPa | 498.73
300 K, 4462.1 kPa | 499.91
300 K, 4937 kPa | 501.23
300 K, 5518.9 kPa | 502.75
300 K, 6063.5 kPa | 504.2
300 K, 6496.7 kPa | 505.29
300 K, 7004.4 kPa | 506.54
310 K, 1514.4 kPa | 473.96
310 K, 2018.8 kPa | 475.98
310 K, 2491.2 kPa | 477.78
310 K, 3012.9 kPa | 479.7
310 K, 3515 kPa | 481.48
310 K, 4040.6 kPa | 483.29
310 K, 4528.9 kPa | 484.91
310 K, 5029.4 kPa | 486.52
310 K, 5529.3 kPa | 488.08
310 K, 6046.3 kPa | 489.64
310 K, 6510.1 kPa | 491.02
310 K, 6991.8 kPa | 492.41
320 K, 2011.4 kPa | 457.17
320 K, 2513.8 kPa | 459.66
320 K, 3002.1 kPa | 461.96
320 K, 3495.1 kPa | 464.17
320 K, 4025.8 kPa | 466.44
320 K, 4519.6 kPa | 468.46
320 K, 5017.9 kPa | 470.44
320 K, 5536.8 kPa | 472.4
320 K, 6024.8 kPa | 474.19
320 K, 6523.4 kPa | 475.95
320 K, 7008.9 kPa | 477.63
330 K, 2033.9 kPa | 435.23
330 K, 2537.4 kPa | 438.74
330 K, 3032 kPa | 441.91
330 K, 3546.3 kPa | 445
330 K, 3909.1 kPa | 447.05
330 K, 3995.4 kPa | 447.53
330 K, 4495.8 kPa | 450.17
330 K, 4996.1 kPa | 452.66
330 K, 5488.6 kPa | 455.01
330 K, 6010.6 kPa | 457.38
330 K, 6499.8 kPa | 459.5
330 K, 6985.1 kPa | 461.52
340 K, 3024.2 kPa | 417.87
340 K, 3507.8 kPa | 422.07
340 K, 4014 kPa | 426.05
340 K, 4501.8 kPa | 429.56
340 K, 5027.1 kPa | 433.06
340 K, 5516.7 kPa | 436.1
340 K, 5985 kPa | 438.83
340 K, 6494.7 kPa | 441.64
340 K, 6964.1 kPa | 444.1
350 K, 3541.2 kPa | 393.49
350 K, 4011.9 kPa | 399.51
350 K, 4505.9 kPa | 404.94
350 K, 5024.8 kPa | 409.94
350 K, 5521.6 kPa | 414.24
350 K, 6027.1 kPa | 418.22
350 K, 6491.4 kPa | 421.59
350 K, 6978.1 kPa | 424.88
360 K, 4043.5 kPa | 362.08
360 K, 4527.8 kPa | 372.52
360 K, 5043 kPa | 380.99
360 K, 5524.7 kPa | 387.51
360 K, 6048.5 kPa | 393.63
360 K, 6529.9 kPa | 398.56
360 K, 6953.8 kPa | 402.5
370 K, 779.8 kPa | 11.91
370 K, 1089.1 kPa | 17.21
370 K, 1515.9 kPa | 25.15
370 K, 2081.6 kPa | 37.08
370 K, 2783.7 kPa | 55.36
370 K, 4325.4 kPa | 287.46
370 K, 4521.7 kPa | 312.65
370 K, 4996.9 kPa | 336.94
370 K, 5527.4 kPa | 352.01
370 K, 5998 kPa | 361.65
370 K, 6504.8 kPa | 369.98
370 K, 7066.4 kPa | 377.66
380 K, 813.8 kPa | 12.27
380 K, 1223.8 kPa | 19.12
380 K, 1564.3 kPa | 25.22
380 K, 2032 kPa | 34.39
380 K, 2630.4 kPa | 47.9
380 K, 3340.1 kPa | 67.96
380 K, 4059 kPa | 97.16
380 K, 4059.9 kPa | 97.18
380 K, 4060.6 kPa | 97.22
380 K, 4556.5 kPa | 131.82
380 K, 5335.4 kPa | 273.87
380 K, 5530.3 kPa | 291.64
380 K, 6044.5 kPa | 318.37
380 K, 6541.5 kPa | 333.99
380 K, 7012.1 kPa | 344.89

Liquid
Details | mass density [kg/m3] | vapor or sublimation pressure [kPa]
240 K | 570.28 | 147.9
250 K | 558.29 | 217.7
260 K | 545.77 | 310.3
270 K | 532.67 | 429.6
290 K | 504.75 | 768.6
300 K | 489.48 | 997.6
310 K | 472.96 | 1272.1
320 K | 455 | 1600.7
330 K | 434.9 | 1988.8
340 K | 411.92 | 2429.7
350 K | 384.39 | 2948
360 K | 347.97 | 3552.2

Source: the NIST ThermoML archive (doi:10.1021/je049672l)
